{
  "source": "patent US12139556B2",
  "about": "“Insect neuropeptides 6” (Solasta Bio Limited, priority 2022, dated 2024)",
  "type_in_all_cases": "in vivo",
  "key": {"[1]": {"tested_on": "Myzus persicae", "assay": "Field trials by third-party organisations", "protocol": "(§1) Field trials for peptide SB-P-65, unformulated, against various insects were conducted by third-party organisations PGRO and AgriScience."}, "[2]": {"tested_on": "bees", "assay": "Bee oral toxicity test adapted from OECD Test No. 247 (Bumblebee, Acute Oral Toxicity Test)", "details": "% survival after 96 hours of application; FIG. 10", "protocol": "Bee oral testing protocol was carried out adapted from OECD Test No. 247: Bumblebee, Acute Oral Toxicity Test. The toxicity of SB-P-65 was compared with a negative control of sucrose or vehicle, and with a current commercial insecticide Imidacloprid."}, "[3]": {"tested_on": "Aphis fabae", "assay": "Field trials (PGRO) on vining peas, naturally infested", "protocol": "as §1"}, "[4]": {"tested_on": "Aphis gossypii", "assay": "Field trials (AgriScience) on cotton and melon, naturally infested", "protocol": "as §1"}, "[5]": {"tested_on": "Myzus persicae", "assay": "Leaf dip assay (IRAC susceptibility test method 019), mortality assessment", "details": "unformulated or with Silwet-408 adjuvant; mortality assessed at 72, 96 and 120 hours; FIGS. 6-8", "protocol": "The assay was carried out based on IRAC susceptibility test method 019 (irac-online.org/methods/aphids-adultnymphs/).\nFill a small 4 cm wide 3 cm high dish with a 1% agar treatment solution of the active chemical or control (ensuring 1 cm gap between the agar and the lid) and leave to set. Dip a 2.5 cm leaf disc into 3 ml of treatment solution allowing the treatment to coat the leaf. Leave the disc to dry for 1 hour and place onto the set agar. Place insects (M. persicae aphids) onto each of the leaf discs. Each unit is sealed with a close-fitting, ventilated lid. Place the agar dishes in a small plastic tray lined with moist tissue paper and ensure the water trays in the bottom of the incubator are filled with clean water and place within the incubator. An assessment of mortality is made at 72, 96 and 120 hours. Leaf dip assays were performed with SB-P-65, and compared to a negative control vehicle and a current commercial insecticide Spirotetramat. The activity of SB-P-65 is shown in FIGS. 6-8; SB-P-65 has good activity whilst being eco-friendly and targeted to specific pests unlike broad spectrum chemical insecticides such as Spirotetramat."}, "[6]": {"details": "versus Stealth/Aphox, Teppeki/Aphox, Profil Extra, Hallmark Zeon"}},
  "data": [
    {"compound": "CC(C)[C@H](NC(=O)[C@@H](NC(=O)[C@H](CCCCN)NC(=O)[C@H](CCC(N)=O)NC(=O)[C@@H](N)CCCNC(=N)N)[C@@H](C)O)C(=O)N[C@@H](Cc1ccccc1)C(=O)N[C@@H](CO)C(=O)N[C@@H](CO)C(=O)N[C@@H](Cc1c[nH]c2ccccc12)C(=O)NCC(N)=O", "note": "[SB-P-65, [Hy]-RQKTVFSSWG-[NH2]]", "values": [
      {"measurement": "efficacy in field trials against Myzus persicae", "setting": "[1]; unformulated, real-world conditions", "result": "good efficacy"},
      {"measurement": "efficacy relative to commercial insecticides, Myzus persicae field trials", "setting": "[1]; [6]", "result": "comparably to commercial insecticides"},
      {"measurement": "toxicity to bees (oral), compared to Imidacloprid", "setting": "[2]", "result": "far lower toxicity"},
      {"measurement": "efficacy in field trials against Aphis fabae", "setting": "[3]; unformulated, vining peas, real-world conditions, FIGS. 11, 14", "result": "good efficacy"},
      {"measurement": "efficacy relative to commercial insecticides, Aphis fabae field trials", "setting": "[3]; [6]", "result": "comparably to commercial insecticides"},
      {"measurement": "efficacy in field trials against Aphis gossypii", "setting": "[4]; unformulated, cotton, melon, real-world conditions, FIGS. 12, 13", "result": "good efficacy"},
      {"measurement": "efficacy relative to commercial insecticides, Aphis gossypii field trials", "setting": "[4]; [6]", "result": "comparably to commercial insecticides"},
      {"measurement": "activity against Myzus persicae (mortality) in leaf dip assay", "setting": "[5]", "result": "good activity"}
    ]}
  ]
}
